Structures can show the parent of a compound that is named as a salt.

The values below come from patent US9902702B2, “Spirocycloheptanes as inhibitors of rock” (BRISTOL-MYERS SQUIBB COMPANY, priority 2014, dated 2018).

The test concerns the target ROCK2 (Homo sapiens, UniProt O75116). Put plainly: ROCK assay: phosphorylation of FITC peptide substrate, LABCHIP 3000 mobility shift. The note with it: 5 μM ATP, 1.5 μM peptide substrate; read-out: ROCK2 Activity (ROCK IC50 range). Type of test: biochemical. An outline of the steps:
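Rho kinase variant phosphorylates 1.5 μM FITC-AHA-AKRRRLSSLRA-OH with 5 μM ATP in 20 mM HEPES pH 7.5, 20 mM MgCl2, 0.015% Brij-35, 4 mM DTT, DMSO <2%. EDTA stops the reaction, and phospho and non-phospho peptides are resolved by LabChip 3000 mobility shift. IC50 from dose-response curve fit.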

Sequence of ROCK2 (O75116 whole entry, species assumed): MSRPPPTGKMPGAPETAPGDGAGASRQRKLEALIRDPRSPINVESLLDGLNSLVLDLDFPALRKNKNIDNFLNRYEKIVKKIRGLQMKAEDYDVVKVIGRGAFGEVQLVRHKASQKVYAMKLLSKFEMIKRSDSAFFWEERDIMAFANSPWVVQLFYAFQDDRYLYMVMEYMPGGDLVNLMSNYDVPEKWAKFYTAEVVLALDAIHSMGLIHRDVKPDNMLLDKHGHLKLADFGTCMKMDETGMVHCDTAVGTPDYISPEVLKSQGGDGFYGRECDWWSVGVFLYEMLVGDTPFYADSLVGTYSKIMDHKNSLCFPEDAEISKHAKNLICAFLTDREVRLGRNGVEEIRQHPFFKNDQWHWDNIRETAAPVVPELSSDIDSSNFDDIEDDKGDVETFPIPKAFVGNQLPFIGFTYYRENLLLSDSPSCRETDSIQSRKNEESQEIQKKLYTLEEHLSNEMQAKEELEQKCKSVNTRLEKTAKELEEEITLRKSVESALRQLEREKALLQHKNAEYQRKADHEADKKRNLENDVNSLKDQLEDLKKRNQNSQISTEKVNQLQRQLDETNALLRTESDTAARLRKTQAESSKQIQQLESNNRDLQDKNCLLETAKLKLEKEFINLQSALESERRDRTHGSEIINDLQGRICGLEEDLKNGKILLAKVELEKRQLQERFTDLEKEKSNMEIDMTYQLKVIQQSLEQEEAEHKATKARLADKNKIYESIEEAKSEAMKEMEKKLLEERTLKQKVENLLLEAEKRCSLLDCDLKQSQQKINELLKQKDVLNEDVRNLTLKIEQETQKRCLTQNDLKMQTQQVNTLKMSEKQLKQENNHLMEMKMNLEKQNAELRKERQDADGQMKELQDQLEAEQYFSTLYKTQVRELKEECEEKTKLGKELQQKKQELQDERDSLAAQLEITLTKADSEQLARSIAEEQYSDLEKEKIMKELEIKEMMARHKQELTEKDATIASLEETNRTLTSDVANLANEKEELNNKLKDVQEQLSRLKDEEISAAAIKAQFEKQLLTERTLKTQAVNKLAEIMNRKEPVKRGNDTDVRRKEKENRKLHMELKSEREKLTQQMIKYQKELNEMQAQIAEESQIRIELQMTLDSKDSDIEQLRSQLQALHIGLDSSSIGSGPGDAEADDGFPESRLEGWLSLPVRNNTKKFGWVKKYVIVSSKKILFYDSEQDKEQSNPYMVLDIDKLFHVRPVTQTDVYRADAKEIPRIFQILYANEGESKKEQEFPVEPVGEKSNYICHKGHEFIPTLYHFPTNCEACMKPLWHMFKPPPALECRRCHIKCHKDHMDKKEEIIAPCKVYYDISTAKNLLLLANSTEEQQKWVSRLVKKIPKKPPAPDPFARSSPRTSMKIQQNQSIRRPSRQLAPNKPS

`[2H]C([2H])([2H])n1cc(-c2ccn3c(C(=O)N[C@H]4CC5(C4)C[C@H](c4n[nH]c(=O)c6ccccc64)C5)cnc3c2)cn1` (stereo partly drawn) [Example 442, 7-(1-(methyl-d3)-1H-pyrazol-4-yl)-N-((aR)-6-(4-oxo-3,4-dihydrophthalazin-1-yl)spiro[3.3]heptan-2-yl)imidazo[1,2-a]pyridine-3-carboxamide]: the concentration for half-maximal inhibition (IC50) (as a rule, the concentration that gives 50% inhibition) is 0.2 to 2 nM.

`[H][C@]1(c2n[nH]c(=O)c3ccccc32)C[C@]2(C[C@@H](NC(=O)c3cn4ccc(-c5cnc(C)s5)cc4n3)C2)C1` (stereo partly drawn) [Example 454, 7-(2-methylthiazol-5-yl)-N-((aR)-6-(4-oxo-3,4-dihydrophthalazin-1-yl)spiro[3.3]heptan-2-yl)imidazo[1,2-a]pyridine-2-carboxamide]: the 50% inhibitory concentration (IC50) is 15.1 to 100 nM.

`[H][C@]1(c2n[nH]c(=O)c3ccccc32)C[C@]2(C[C@@H](NC(=O)c3cc4ccc(OC)cc4n3C)C2)C1` (stereo partly drawn) [Example 314, 6-methoxy-1-methyl-N-((aR)-6-(4-oxo-3,4-dihydrophthalazin-1-yl)spiro[3.3]heptan-2-yl)-1H-indole-2-carboxamide]: the concentration for half-maximal inhibition (IC50) was 5.1 to 15 nM.

As to `O=C(NC1CC2(C1)CC(c1n[nH]c(=O)c3ccccc13)C2)c1cnn2cc(OCC(F)F)ccc12` [Example 80, 6-(2,2-difluoroethoxy)-N-((aR)-6-(4-oxo-3,4-dihydrophthalazin-1-yl)spiro[3.3]heptan-2-yl)pyrazolo[1,5-a]pyridine-3-carboxamide], the half-inhibitory concentration (IC50) is 0.2 to 2 nM.

Take `O=C(NC1CC2(C1)CC(c1n[nH]c(=O)c3ccccc13)C2)c1cnn2cc(OC3CCS(=O)(=O)CC3)ccc12` (stereo not drawn) [Example 132, 6-((1,1-dioxidotetrahydro-2H-thiopyran-4-yl)oxy)-N-((αR)-6-(4-oxo-3,4-dihydrophthalazin-1-yl)spiro[3.3]heptan-2-yl)pyrazolo[1,5-α]pyridine-3-carboxamide]: the IC50 was in the range of 0.2 to 2 nM.

`[H][C@]1(c2n[nH]c(=O)c3ccccc32)C[C@]2(C[C@@H](NC(=O)N3CCc4ccccc43)C2)C1` (stereo partly drawn) [Example 50, N-((aR)-6-(4-Oxo-3,4-dihydrophthalazin-1-yl)spiro[3.3]heptan-2-yl)indoline-1-carboxamide]: the half-inhibitory concentration (IC50) was in the range of 5.1 to 15 nM.

Take `O=C(Nc1ccc(-c2cnn(C3CCOCC3)c2)cc1)NC1CC2(C1)CC(c1n[nH]c(=O)c3ccccc13)C2` [Example 231, 1-((aR)-6-(4-oxo-3,4-dihydrophthalazin-1-yl)spiro[3.3]heptan-2-yl)-3-(4-(1-(tetrahydro-2H-pyran-4-yl)-1H-pyrazol-4-yl)phenyl)urea]: the half-inhibitory concentration (IC50) was in the range of 15.1 to 100 nM.

Regarding `[H][C@]1(c2n[nH]c(=O)c3ccccc32)C[C@]2(C[C@@H](NC(=O)c3cc4cccc(-c5cnn(C)c5)c4[nH]3)C2)C1` (stereo partly drawn) [Example 420, 7-(1-methyl-1H-pyrazol-4-yl)-N-((aR)-6-(4-oxo-3,4-dihydrophthalazin-1-yl)spiro[3.3]heptan-2-yl)-1H-indole-2-carboxamide], the IC50 lay in the range of 5.1 to 15 nM.

As for `Cn1nc(C(=O)N[C@H]2CC3(C2)C[C@H](c2n[nH]c(=O)c4ccccc42)C3)c2ccccc21` (single isomer, unassigned) [Example 17], the 50% inhibitory concentration (IC50) lay in the range of 100 to 2100 nM.

For the compound `Cc1sc(N2CCCC2C(F)(F)F)nc1C(=O)NC1CC2(C1)CC(c1n[nH]c(=O)c3ccccc13)C2` [Example 60, 5-methyl-N-((aR)-6-(4-oxo-3,4-dihydrophthalazin-1-yl)spiro[3.3]heptan-2-yl)-2-((R)-2-(trifluoromethyl)pyrrolidin-1-yl)thiazole-4-carboxamide], the 50% inhibitory concentration (IC50) was 15.1 to 100 nM.

In the case of `O=C(NC1CC2(C1)CC(c1n[nH]c(=O)c3ccccc13)C2)N1CCc2cc(-c3cnn(CC4CC4)c3)ccc21` [Example 241, 5-(1-(cyclopropylmethyl)-1H-pyrazol-4-yl)-N-((aR)-6-(4-oxo-3,4-dihydrophthalazin-1-yl)spiro[3.3]heptan-2-yl)indoline-1-carboxamide], the IC50 lay in the range of 2.01 to 5 nM.

As for `[H][C@]1(c2n[nH]c(=O)c3ccccc32)C[C@]2(C[C@@H](NC(=O)c3cnc4cc(OCC(C)(C)O)ccn34)C2)C1` (stereo partly drawn) [Example 400, 7-(2-hydroxy-2-methylpropoxy)-N-((aR)-6-(4-oxo-3,4-dihydrophthalazin-1-yl)spiro[3.3]heptan-2-yl)imidazo[1,2-a]pyridine-3-carboxamide], the 50% inhibitory concentration (IC50) lay within 0.2 to 2 nM.

Consider `COc1ccc(Cn2cc(C(=O)NC3CC4(C3)CC(c3n[nH]c(=O)c5ccccc35)C4)cn2)cc1` [Example 102, 1-(4-methoxybenzyl)-N-((aR)-6-(4-oxo-3,4-dihydrophthalazin-1-yl)spiro[3.3]heptan-2-yl)-1H-pyrazole-4-carboxamide], for which the concentration for half-maximal inhibition (IC50) was in the range of 5.1 to 15 nM.

Take `Cn1cc(-c2ccc3c(C(=O)NC4CC5(C4)CC(c4n[nH]c(=O)c6ccccc46)C5)nn(CC(C)(C)O)c3c2)cn1` (stereo not shown) [Example 147, 1-(2-hydroyx-2-methylpropyl)-6-(1-methyl-1H-pyrazol-4-yl)-N-((αR)-6-(4-oxo-3,4-dihydrophthalazin-1-yl)spiro[3.3]heptan-2-yl)-1H-indazole-3-carboxamide]: the IC50 was in the range of 2.01 to 5 nM.

On to `[H][C@]1(c2n[nH]c(=O)c3ccccc32)C[C@]2(C[C@@H](NC(=O)c3cc4ccc(Cl)cc4s3)C2)C1` (stereo partly drawn) [Example 313, 6-chloro-N-((aR)-6-(4-oxo-3,4-dihydrophthalazin-1-yl)spiro[3.3]heptan-2-yl)benzo[b] thiophene-2-carboxamide], for which the 50% inhibitory concentration (IC50) is 5.1 to 15 nM.

Regarding `[H][C@]1(c2n[nH]c(=O)c3ccccc32)C[C@]2(C[C@@H](NC(=O)c3ccc(-c4cnn(C)c4)nc3)C2)C1` (stereo partly drawn) [Example 425, 6-(1-methyl-1H-pyrazol-4-yl)-N-((aR)-6-(4-oxo-3,4-dihydrophthalazin-1-yl)spiro[3.3]heptan-2-yl)nicotinamide], the IC50 was in the range of 5.1 to 15 nM.

With `O=C(N[C@H]1CC2(C1)C[C@H](c1n[nH]c(=O)c3ccccc31)C2)c1cnn2cc(CCC(O)(C(F)(F)F)C(F)(F)F)ccc12` (stereo partly drawn) [Example 199, N-((aR)-6-(4-oxo-3,4-dihydrophthalazin-1-yl)spiro[3.3]heptan-2-yl)-6-(4,4,4-trifluoro-3-hydroxy-3-(trifluoromethyl)butyl)pyrazolo[1,5-a]pyridine-3-carboxamide], the IC50 was 2.01 to 5 nM.

Regarding `O=C(NC1CC2(C1)CC(c1n[nH]c(=O)c3ccccc13)C2)c1cnn2cc(CCCN3CCC(F)(F)CC3)ccc12` [Example 196, 6-(3-(4,4-difluoropiperidin-1-yl)propyl)-N-((aR)-6-(4-oxo-3,4-dihydrophthalazin-1-yl)spiro[3.3]heptan-2-yl)pyrazolo[1,5-a]pyridine-3-carboxamide], the 50% inhibitory concentration (IC50) fell in the range of 2.01 to 5 nM.

Take `[H][C@]1(c2n[nH]c(=O)c3ccccc32)C[C@]2(C[C@@H](NC(=O)c3cc4cccc(F)c4[nH]3)C2)C1` (stereo partly drawn) [Example 333, 7-fluoro-N-((aR)-6-(4-oxo-3,4-dihydrophthalazin-1-yl)spiro[3.3]heptan-2-yl)-1H-indole-2-carboxamide]: the IC50 lay within 5.1 to 15 nM.

For the compound `CCc1nn2cc(C(=O)NC3CC4(C3)CC(c3n[nH]c(=O)c5ccccc35)C4)nc2s1` [Example 95, 2-ethyl-N-((aR)-6-(4-oxo-3,4-dihydrophthalazin-1-yl)spiro[3.3]heptan-2-yl)imidazo[2,1-b][1,3,4]thiadiazole-6-carboxamide], the IC50 was in the range of 5.1 to 15 nM.

In the case of `COc1ccc2c(c1)c(C(=O)NC1CC3(C1)CC(c1n[nH]c(=O)c4ccccc14)C3)nn2CC(C)(C)O` [Example 61, 1-(2-hydroxy-2-methylpropyl)-5-methoxy-N-((aR)-6-(4-oxo-3,4-dihydrophthalazin-1-yl)spiro[3.3]heptan-2-yl)-1H-indazole-3-carboxamide], the half-maximal inhibitory concentration (IC50) lay in the range of 2.01 to 5 nM.

As for `[H][C@]1(c2n[nH]c(=O)c3ccccc32)C[C@]2(C[C@@H](NC(=O)c3ccc(CCN4CCCC4)nc3)C2)C1` (stereo partly drawn) [Example 344, N-((aR)-6-(4-oxo-3,4-dihydrophthalazin-1-yl)spiro[3.3]heptan-2-yl)-6-(2-(pyrrolidin-1-yl)ethyl)nicotinamide], the IC50 was 100 to 2100 nM.

Turning to `[H][C@]1(c2n[nH]c(=O)c3ccccc32)C[C@]2(C[C@@H](NC(=O)c3ccc4nc(C)oc4c3)C2)C1` (stereo partly drawn) [Example 315, 2-methyl-N-((aR)-6-(4-oxo-3,4-dihydrophthalazin-1-yl)spiro[3.3]heptan-2-yl)benzo[d] oxazole-6-carboxamide], the IC50 was in the range of 15.1 to 100 nM.

For `O=C(Nc1ccc(Br)cc1)N[C@H]1CC2(C1)C[C@H](c1n[nH]c(=O)c3ccccc31)C2` (stereo partly drawn) [Example 227, 1-(4-bromophenyl)-3-((aR)-6-(4-oxo-3,4-dihydrophthalazin-1-yl)spiro[3.3]heptan-2-yl)urea], the concentration for half-maximal inhibition (IC50) fell in the range of 15.1 to 100 nM.

On to `[H][C@]1(c2n[nH]c(=O)c3ccccc32)C[C@]2(C[C@@H](NC(=O)c3cn(CC(C)(C)O)c4cc(=O)ccn34)C2)C1` (stereo partly drawn) [Example 402, 1-(2-hydroxy-2-methylpropyl)-7-oxo-N-((aR)-6-(4-oxo-3,4-dihydrophthalazin-1-yl)spiro[3.3]heptan-2-yl)-1,7-dihydroimidazo[1,2-a]pyridine-3-carboxamide], for which the IC50 lay in the range of 100 to 2100 nM.

As for `[H][C@]1(c2n[nH]c(=O)c3ccccc32)C[C@]2(C[C@@H](NC(=O)c3ccc(-n4cnc(C)c4)c(OC)c3)C2)C1` (stereo partly drawn) [Example 349, 3-methoxy-4-(4-methyl-1H-imidazol-1-yl)-N-((aR)-6-(4-oxo-3,4-dihydrophthalazin-1-yl)spiro[3.3]heptan-2-yl)benzamide], the IC50 lay in the range of 5.1 to 15 nM.

Consider `Cc1ccn2c(=O)[nH]nc(C3CC4(CC(NC(=O)c5cnn6cc(OCC(C)(C)O)ccc56)C4)C3)c12` (stereo not shown) [Example 281, 6-(2-hydroxy-2-methylpropoxy)-N-(6-(8-methyl-4-oxo-3,4-dihydropyrrolo[1,2-d][1,2,4]triazin-1-yl)spiro[3.3]heptan-2-yl)pyrazolo[1,5-a]pyridine-3-carboxamide, TFA], for which the half-maximal inhibitory concentration (IC50) is 5.1 to 15 nM.

With `[H][C@]1(c2n[nH]c(=O)c3ccccc32)C[C@]2(C[C@@H](NC(=O)c3ccc4c(ccn4C)c3)C2)C1` (stereo partly drawn) [Example 368, 1-methyl-N-((aR)-6-(4-oxo-3,4-dihydrophthalazin-1-yl)spiro[3.3]heptan-2-yl)-1H-indole-5-carboxamide], the 50% inhibitory concentration (IC50) lay in the range of 5.1 to 15 nM.
